Experimental data reported in US5905073A, “Use of 2-hydroxy-5-phenylazobenzoic acid derivatives as colon cancer chemopreventative and chemotherapeutic agents” (priority 1996, dated 1999).
“Also recorded” adds a separate entry of the source. Like-named read-outs stand apart in the source and are kept apart here.

Columns and labels:
[1] = test system: ulcerative colitis; settings: active and quiescent ulcerative colitis; cited from earlier work
[2] = test system: aberrant crypt foci induced by azoxymethane (AOM); test: Inhibition of aberrant crypt progression / multiplicity, treatment started 24 hours after second AOM injection; format: in vivo, rat
Source text: Inhibition of Aberrant Crypt Progression. The data shown in FIG. 4 were collected from the distal 7-8 cm of colonic tissue. At these early time points, this area contained over 80% of the total aberrant crypt foci. An additional study was therefore designed to examine a longer time point, assess the distribution throughout the entire 25 cm of colon and determine if the drug treatment could be initiated after the second AOM injection.
In the second study, groups of 8 animals received two injections of azoxymethane one week apart. Balsalazide treatment was then initiated with one group 24 hours following the second injection. Six weeks later the animals were processed for aberrant crypt analysis. Crypts were stained in situ by rectal instillation of a 0.2% solution of methylene blue for 15 min under anesthesia. Animals were then exsanguinated, colonic tissue from the anus to the caecum was excised, cleaned and fixed for 2 hours in 2% paraformaldehyde. Crypts were counted by viewing at a magnification of 40×. In addition to collecting data on the number of foci, data was also collected on the multiplicity of aberrant crypts per foci.
Previous studies by Pretlow et al (Pretlow et al. (1992) Carcinogenesis 13:1509-1512) have reported on the relationship between aberrant crypt multiplicity and ultimate tumor development using the same carcinogenesis model. […] The data from the above experiment was analyzed to determine the effect of balsalazide on the aberrant crypt multiplicity. […] For foci with 1-3 crypts the mean inhibition ranged from 57-61% (p<0.003, Fischer exact test) while the number of foci with 4 or more crypts was reduced by a mean of 72-76% (p<0.001). When the results on the number of foci containing 4 or more crypts are compared with those containing 3 or less the difference remains statistically significant at the p<0.022 level using the Fischer exact test.

[3] = test system: HT-29 cells; test: Dose response growth inhibition of HT-29 cells, Sulforhodamine B dye binding assay; format: cell-based, human; settings: Homo sapiens
Description: (§1) For dose response studies a sensitive dye binding assay was adapted which allows simultaneous assay of multiple agents and doses in 96-well plates. Cells were plated and allowed to adhere for 24 hours prior to addition of the study drug. Cell densities were then determined 4 days later by fixation of the wells and staining with Sulforhodamine B dye.

[4] = cited from earlier work
[5] = test system: human colon cancer cells; test: Colon cancer cell proliferation in vitro, comparative statements; format: cell-based
Description: (§2) Cells were grown in Dulbeccos Modified Eagle medium supplemented with 10% calf serum in an atmosphere of 5% CO2 at 37° C. For growth experiments, cells were seeded into 24-well tissue culture dishes (2 cm^2 /well) at a density of 20,000 cells/well and allowed to attach for 12 hours. The growth medium was then changed and replaced with fresh media containing the test drugs.
(§3) The test drugs were dissolved in tissue culture media at the desired concentration and added to individual wells. To determine the number of cells per well, media was removed and the cells washed with phosphate buffered saline solution. The cells were then incubated 15 minutes with trypsin-EDTA solution until detached. The detached cells were then removed from the wells and counted using a Coulter Counter (Model ZBI).
(§4) The cell numbers shown in Table I are the average of triplicate culture wells.
as §1, with “dye. Optical density of the stained cultures was then determined using a 96-well plate reader at 495 nm (Skehan et al. (1990) J. Natl. Cancer Inst. 82:1107-1112).” for “dye.”
Two such oxidation products, gentisic acid (Dull et al. (1987) Biochem. Pharmacol. 36:2467-2472) and 5-nitro-salicylate (Laffafian et al. (1991) Biochem. Pharmacol. 42:1869-1874) have been elucidated.

[6] = test system: HRT-18 cells; test: Growth inhibition of HRT-18 colon cancer cells; format: cell-based; settings: Homo sapiens; HRT-18, Table IV; read-out: IC50 for inhibition of human colon cancer cell proliferation
Description: as §1

[7] = test system: HT-29 cells; test: Proliferation of HT-29 colon cancer cells, Coulter Counter cell count; format: cell-based, human
Description: as §2, §3, §4

[8] = 6 weeks after second AOM injection, 8 animals

O=C(O)CCNC(=O)c1ccc(/N=N/c2ccc(O)c(C(=O)O)c2)cc1 [Balsalazide]
anti-inflammatory activity in ulcerative colitis patients [1]: possesses anti-inflammatory activity | mean number of foci, Total [2, 8]: 63.75 | mean number of foci, multiplicity 1 [2, 8]: 10.3 | mean number of foci, multiplicity 2 [2, 8]: 19.1 | mean number of foci, multiplicity 3 [2, 8]: 15.3 | mean number of foci, multiplicity 4 [2, 8]: 8.5 | mean number of foci, multiplicity 5 to 8 [2, 8]: 9.6 | inhibition of aberrant crypt foci overall ([2]; given beginning 24 hours following second AOM injection, 6 weeks): approximately 60% | mean reduction of number of foci with 4 or more crypts ([2]; p<0.001): 72-76% | mean inhibition of foci with 1-3 crypts ([2]; p<0.003, Fischer exact test): 57-61% | reduction of foci with the greatest number of aberrant crypts relative to foci containing 2-3 ([2]; rat, in vivo): almost twice | IC50 ([3]; HT-29, Table IV, read-out: IC50 for inhibition of human colon cancer cell proliferation): 5.71 mM | IC50 ([3]; HT-29, text (FIG. 5), read-out: IC50): 5.7 mM | absorption ([4]; oral balsalazide): virtually unabsorbed through the upper GI tract | drug reaching the colon intact ([4]; oral): 99% | inhibition of colon cancer cell growth (in words) [5]: potently inhibitory; also recorded: greater inhibitory response at lower concentrations than did 5-ASA | relative sensitivity of LS174T and HT-29 cells ([5]; LS174T vs HT-29): identical between both cell types | IC50 [6]: 3.88 mM | Cell No. on Day 10 ([7]; HT-29, 10 mM, average of triplicate wells): 47500 | activity at 10000 µM ([7]; Homo sapiens, HT-29, 240 h, read-out: % of Control Cells): 3.6%
